{"source": "paper PMC9004346", "about": "“Development of small cyclic peptides targeting the CK2α/β interface” (Chemical Communications (Cambridge, England), 2022)", "note": "Where two headings read alike, the source gives them in different places."}
{"substance": "JC3RLYGFKXC3", "values": [{"measurement": "ring closure, yield after HPLC", "setting": "triazole bond, 26-membered ring, [Cp*RuCl]4 30 mol%, tBuOH/H2O 1:1, 0.61 mM", "value": 3, "unit": "%"}]}
{"substance": "CC8RLYGFKWC8", "values": [{"measurement": "ring closure, yield after HPLC", "setting": "thioether bond, 27-membered ring, I2, H2O/MeCN, 0.46 mM", "value": 25, "unit": "%"}]}
{"substance": "CC6RLYGFKCC6", "values": [{"measurement": "ring closure, yield after HPLC", "setting": "crosslinker bond, 27-membered ring, TCEP/K2CO3, CH2I2/NEt3, H2O/THF, 3.7 mM", "value": 19, "unit": "%"}]}
{"substance": "JC2RLYGFKXC2", "values": [{"measurement": "ring closure, yield after HPLC", "setting": "triazole bond, 27-membered ring, CuSO4/Na ascorbate/DIEA, H2O, 1.3 mM", "value": 19, "unit": "%"}]}
{"substance": "CC4RLYGFKCC4", "values": [{"measurement": "ring closure, yield after HPLC", "setting": "crosslinker bond, 29-membered ring, TCEP, dichloroacetone, phosphate buffer pH 8/DMF 1:2, 1.3 mM", "value": 8, "unit": "%"}]}
{"substance": "GXC1RLYGFKWHXC1GG", "values": [{"measurement": "ring closure, yield after HPLC", "setting": "crosslinker bond, 39-membered ring, 3,5-diethynylbenzoic acid/CuSO4/THPTA/Na ascorbate, tBuOH/H2O 1:1, 0.48 mM", "value": 2, "unit": "%"}]}
{"substance": "CC7RLYGFKCC7", "values": [{"measurement": "ring closure, yield after HPLC", "setting": "crosslinker bond, 33-membered ring, N-(4,6-divinylpyrimidin-2-yl)-N-methylglycine, phosphate buffer pH 8/DMF, 1.6 mM", "value": 17, "unit": "%"}]}
